Assay results published in patent US20230399661A1, “SHUTTLE AGENT PEPTIDES OF MINIMAL LENGTH AND VARIANTS THEREOF ADAPTED FOR TRANSDUCTION OF CAS9-RNP AND OTHER NUCLEOPROTEIN CARGOS” (priority 2020, published 2023).

Assays:
[1] = system: HeLa cells; test: GFP-NLS transduction in the presence or absence of Cas9-RNP complex, flow cytometry; type: cell-based, Human; design: GFP transduction efficiency: concentration or dose not given beside the values; conditions: for resistance/sensitivity of GFP transduction to inhibition by Cas9-RNP: presence vs absence of Cas9-RNP
Description: HeLa cells were plated (20 000 cells/well) in a 96 well-plate the day prior to the experiment in DMEM containing 10% FBS. A mix was prepared containing a synthetic peptide shuttle agent (10-30 μM), the GFP-NLS (10 μM) with or without a Cas9-NLS recombinant protein (2.5 μM) complexed with a crRNA/tracrRNA (2 μM) targeting the beta-2 microglobulin (B2M) gene and completed to 50 μL with PBS. Cells were washed once with PBS and the shuttle/GFP-NLS/Cas9-RNP mix was added to the cells and incubated for one minute. Then 100 μL DMEM containing 10% FBS was added to the mix. Cells were then immediately washed once with PBS and incubated in DMEM containing 10% FBS for two hours. Cells were the analyzed by flow cytometry.
To better understand the inhibitory effect of Cas9-RNP on shuttle agent transduction activity, HeLa cells were incubated with different peptides/shuttle agents and GFP cargo, in the presence or absence of Cas9-RNP, and delivery of GFP was assessed by flow cytometry, as described in Example 1. […] For some shuttle agents, the effect was particularly striking. For example, the GFP transduction efficiency for FSD268 decreased from 92% to 29%, the GFP transduction efficiency for FSD250 decreased from 83% to 13%, the GFP transduction efficiency for FSD10 decreased from 76% to 22%, and the GFP transduction efficiency for FSD395 decreased from 91% to 17%. […] Structure-activity relationships were explored further by repeating the above transduction experiments with shuttle agent variants sharing the same “core” amphipathic cationic alpha helical region as FSD10-15 (FIG. 4A), CM18 (FIG. 4B), and FSD356 (FIG. 4C).

[2] = system: CFF-16HBEge cells; test: Cas9-RNP delivery, B2M genome editing; type: cell-based, Human; conditions: B2M knockout, versus non-treated negative control
Description: HeLa cells were plated (10 000 cells/well) in a 96 well-plate the day prior to the experiment in DMEM containing 10% FBS. CFF-16HBEge cells were plated (10 000 cells/well) in a 96 well-plate the day prior to the experiment in Alpha-MEM containing 10% FBS.
For Cas9-RNP or ABE-Cas9-RNP transduction, a mix of Cas9-NLS or ABE-Cas9 recombinant protein (2.5 μM) complexed with a crRNA/tracrRNA (2 μM) targeting the beta-2 microglobulin (B2M) gene were co-incubated with 10-20 μM of synthetic peptide shuttle agent in a final volume of 50 μL completed with PBS. Cells were washed once with PBS and the shuttle/Cas9-RNP complex was added to the cells for and incubated for 60 to 90 seconds. Then 100 μL of DMEM (HeLa) or Alpha-MEM (CFF-16HBEge) containing 10% FBS was added to the mix. Cells were then immediately washed once with PBS and incubated in DMEM (HeLa) or Alpha-MEM (CFF-16HBEge) containing 10% FBS.
Genome editing events resulting in the absence of B2M protein (knockout) at the cell surface were determined by flow cytometry 6 days post-transduction. Cells were washed once with PBS and incubated with the anti-B2 microglobulin antibody (PE conjugated) (0.5 μL of anti-B2M-PE in […] 0.5% BSA/PBS) for 45 minutes at room temperature. Cells were washed twice with PBS and detached with 50 µL of Trypsin-EDTA for 10 minutes at 37° C. then inactivated by adding 100 μL of media containing 10% FBS. The percentage of knockout cells (cells without B2M antibody signal) was determined by flow cytometry.
A similar genome editing experiment as in Example 6 was performed in the Human Bronchial Epithelial cell line model of cystic fibrosis, CFF-16HBEge.
Further transduction experiments in CFF-16HBEge cells were performed to compare the ability of shuttle agents to deliver functional Cas9-RNP genome editing versus ABE-Cas9-RNP base editing complexes. Variants of the shuttle agent FSD10 (FIG. 8A) were tested in parallel, and genome editing/base editing results as evaluated by next-generation sequencing (NGS) are shown in FIGS. 8B and 8C for Cas9-RNP and ABE-Cas9-RNP, respectively.

CM18-L2-PTD4: CM18-based shuttle agent with lower C-terminal positive charge density (KWKLFKKIGAVLKVLTTGGGSGGGSYARAAARQARA; CM18-L2-PTD4)
resistance/sensitivity of GFP transduction to inhibition by Cas9-RNP [1]: substantially more resistant to inhibition by Cas9-RNP

CM18-TAT: CM18-based shuttle agent having high C-terminal positive charge density (KWKLFKKIGAVLKVLTTGYGRKKRRQRRR; CM18-TAT)
resistance/sensitivity of GFP transduction to inhibition by Cas9-RNP [1]: particularly marked sensitivities to inhibition by Cas9-RNP

FSD10-15: 15-amino acid fragment of several longer shuttle agents, including FSD375, FSD10 and FSD210 (KWKLARAFARAIKKL; FSD10-15)
GFP transduction efficiency ([1]; absence of Cas9-RNP): 21% | GFP transduction efficiency ([1]; presence of Cas9-RNP): 24% | resistance/sensitivity of GFP transduction to inhibition by Cas9-RNP [1]: more resistant

FSD174: synthetic peptide shuttle agent having higher C-terminal positive charge density (LLKIWSRLIKIWTQGRRLGGSGGGSARAARQAR; FSD174)
GFP transduction efficiency ([1]; absence of Cas9-RNP): 66% | GFP transduction efficiency ([1]; presence of Cas9-RNP): 11% | resistance/sensitivity of GFP transduction to inhibition by Cas9-RNP [1]: particularly sensitive to the inhibitory effect of Cas9-RNP | resistance/sensitivity of GFP transduction to inhibition by Cas9-RNP ([1]; listed as FSD 174): generally more sensitive to Cas9-RNP inhibition

FSD187: shuttle agent variant sharing the same core region as FSD174; higher C-terminal positive charge density (LLKIWSRLIKIWTQGRRLGARKPRKSRQ; FSD187)
resistance/sensitivity of GFP transduction to inhibition by Cas9-RNP [1]: generally more sensitive to Cas9-RNP inhibition

FSD189: shuttle agent variant sharing the same core region as FSD174; higher C-terminal positive charge density (LLKIWSRLIKIWTQGRRLGRAQRAQRA; FSD189)
resistance/sensitivity of GFP transduction to inhibition by Cas9-RNP [1]: generally more sensitive to Cas9-RNP inhibition

FSD210: shuttle agent: FSD10-15 core, C-terminal glycine/serine-rich linker fused to a second cationic domain (KWKLARAFARAIKKLGGSGGGSRRLKAKRAKA; FSD210)
resistance/sensitivity of GFP transduction to inhibition by Cas9-RNP [1]: more sensitive to inhibition by Cas9-RNP

FSD241: shuttle agent: FSD10-15 core, C-terminal glycine/serine-rich linker fused to a second cationic domain (KWKLARAFARAIKKLGGSGGGSYARAAARQARA; FSD241)
resistance/sensitivity of GFP transduction to inhibition by Cas9-RNP [1]: more sensitive to inhibition by Cas9-RNP

FSD246: shuttle agent with N-terminal segment identical to FSD356; increased C-terminal positive charge density (KWKLLKLWSRLLKLWGGSGGGSYARAAARKAKRA; FSD246)
resistance/sensitivity of GFP transduction to inhibition by Cas9-RNP [1]: increased shuttle agent sensitivity to inhibition by Cas9-RNP

FSD251: shuttle agent containing three negatively-charged glutamate (E) residues in the peptide's C-terminal region (KWKLLKLWSRLLKLWGGSGGGSAEAAEQAE; FSD251)
resistance/sensitivity of GFP transduction to inhibition by Cas9-RNP [1]: least sensitivity to Cas9-RNP inhibition

FSD268: synthetic peptide shuttle agent (KWKLLKLWSRLLKLWGGSGGGSQARAQARQAR; FSD268)
GFP transduction efficiency ([1]; absence of Cas9-RNP): 92% | GFP transduction efficiency ([1]; presence of Cas9-RNP): 29%

FSD296: shuttle agent with N-terminal segment identical to FSD356; polar residues (e.g., Q) between the C-terminal positively-charged residues (KWKLLKLWSRLLKLWQQGGSGGGSQARAQARQAR; FSD296)
resistance/sensitivity of GFP transduction to inhibition by Cas9-RNP [1]: increased shuttle agent sensitivity to inhibition by Cas9-RNP

FSD322: synthetic peptide shuttle agent (KWKLAKAWSRALKLWGGSGGGSARAQARQA; FSD322)
genome editing with Cas9-RNP as cargo [2]: failed to show any increase in genome editing

FSD356: shuttle agent whose last three C-terminal residues are QAG (KWKLLKLWSRLLKLWGGSGGGSQAG; FSD356)
GFP transduction efficiency ([1]; presence of Cas9-RNP): 51% | resistance/sensitivity of GFP transduction to inhibition by Cas9-RNP [1]: more resistant

FSD357: FSD356 with the last three C-terminal residues (QAG) replaced with three positively-charged arginine residues (RRR) (KWKLLKLWSRLLKLWGGSGGGSRRR; FSD357)
GFP transduction efficiency ([1]; presence of Cas9-RNP): 4%

FSD397: synthetic peptide shuttle agent (KLKLAKALAKALKKLGGSGGGSQAKAQAKQAK; FSD397)
genome editing with Cas9-RNP as cargo [2]: failed to show any increase in genome editing

FSD422: FSD10-15 with flanking histidine residues in place of the glycine/serine-rich residues (HHHHHHKWKLARAFARAIKKLHHHHHH; FSD422)
resistance/sensitivity of GFP transduction to inhibition by Cas9-RNP [1]: did not maintain the same level of Cas9-RNP resistance

FSD424: FSD10-15 with flanking glycine/serine-rich residues (KWKLARAFARAIKKLGGSGGGSGGSGGGS; FSD424)
GFP transduction activity relative to FSD10-15 ([1]; FIG. 4A): improving GFP transduction activity over FSD10-15 | resistance/sensitivity of GFP transduction to inhibition by Cas9-RNP [1]: retained the peptide's resistance to Cas9-RNP

FSD432: shuttle agent: FSD10-15 core, C-terminal glycine/serine-rich linker fused to a second cationic domain (KWKLARAFARAIKKLGGSGGGSQAKAQAKQAK; FSD432)
resistance/sensitivity of GFP transduction to inhibition by Cas9-RNP [1]: more sensitive to inhibition by Cas9-RNP

FSD440: CM18 with flanking glycine/serine-rich residues (GGSGGGSKWKLFKKIGAVLKVLTTGGGSGGGS; FSD440)
GFP delivery score ([1]; FIGS. 3 and 4B, presence or absence of Cas9-RNP not stated): 3.6 | resistance/sensitivity of GFP transduction to inhibition by Cas9-RNP [1]: retained the peptide's resistance to Cas9-RNP

FSD446: shuttle agent with N-terminal segment identical to FSD356 and a C-terminal non-cationic hydrophilic segment (KWKLLKLWSRLLKLWGGSGGGSHTSDQTN; FSD446)
GFP transduction efficiency ([1]; presence of Cas9-RNP): 34%

His-CM18-9Arg: CM18-based shuttle agent having high C-terminal positive charge density (HHHHHHKWKLFKKIGAVLKVLTTGRRRRRRRRR; His-CM18-9Arg)
resistance/sensitivity of GFP transduction to inhibition by Cas9-RNP [1]: particularly marked sensitivities to inhibition by Cas9-RNP

His-CM18-TAT: CM18-based shuttle agent having high C-terminal positive charge density (HHHHHHKWKLFKKIGAVLKVLTTGYGRKKRRQRRR; His-CM18-TAT)
resistance/sensitivity of GFP transduction to inhibition by Cas9-RNP [1]: particularly marked sensitivities to inhibition by Cas9-RNP

His-CM18-Transportan: CM18-based shuttle agent with lower C-terminal positive charge density (HHHHHHKWKLFKKIGAVLKVLTTGGWTLNSAGYLLKINLKALAALAKKIL; His-CM18-Transportan)
resistance/sensitivity of GFP transduction to inhibition by Cas9-RNP [1]: substantially more resistant to inhibition by Cas9-RNP
